# Tests used:
# α7−/−iTat mice = test: PAM neuroprotection in α7 nAChR knockout iTat mice; details: mouse, in vivo
# From the text: (§1) Doxycycline (Dox)-inducible and astrocyte-specific HIV-1 Tat-transgenic mice (iTat) were generated as previously described.^38 Wild-type (Wt, C57BL/6) and α7 nAChR knockout mice (α7^−/−, B6.129S7-Chrna^7tm1Ba/J) were purchased from the Jackson Laboratory (Bar Harbor, ME). All the animal procedures were approved by the Institutional Animal Care and Use Committee. Mice were housed with a 12-hour light and 12-hour dark photoperiod and provided water and food ad libitum. α7^−/− iTat mice were generated by cross breeding iTat mice with α7^−/− mice. α7^−/− genotyping was slightly modified with the JumpStart™ Taq DNA Polymerase-based PCR (JumpStart™ Taq DNA Polymerase, Sigma, catalog #D9307). […] Mice of 10-14 weeks old with body weights of 20-35 grams were fed with Dox-containing diet (0.625 g/kg, Envigo, catalog #TD.01306) as stated.
# Open Field Test (OPT) and Morris Water Maze (MWZ) were performed sequentially using a computerized video tracking system (Anymaze, Stoelting) to determine the spontaneous locomotor activity and spatial learning and memory, respectively. For OPT, each mouse was allowed to move freely around a clear acrylic chamber (40.5×40.5×30.5 cm) for 10 minutes. Travel distance and maximum speed was determined by the AnyMaze software. […]
# iTat mice = test: Open Field Test (OPT), locomotor activity; assay type: in vivo, mouse; details: PAM 15 mg/kg/day s.c. vs DMSO
# From the text: as §1
# Open Field Test (OPT) and Morris Water Maze (MWZ) were performed sequentially using a computerized video tracking system (Anymaze, Stoelting) to determine the spontaneous locomotor activity and spatial learning and memory, respectively. For OPT, each mouse was allowed to move freely around a clear acrylic chamber (40.5×40.5×30.5 cm) for 10 minutes. Travel distance and maximum speed was determined by the AnyMaze software. For MWZ, a circle pool (1.2 m diameter) surrounded with a curtain was divided into four equal quadrants, and four signs with different shape were fixed onto the middle of each quadrant wall above the opaque water (24±1° C.). A hidden platform (1.5 cm below water surface) was put into a certain quadrant. Two stages consisting of 5-day training and probe test were carried out. In the training stage, four trials with a 15-20 minute interval were conducted in the every-day training, and for each trial mice were allowed to freely seek the platform within 90 seconds right after they were randomly put into one quadrant facing to the pool wall. If the mice found the platform within 90 seconds, 10 seconds would be added to allow them staying on the platform for memorizing, however, if failed, they would be directed toward the platform and allowed to stay on it for 15 seconds. Mice that were immobile or floating and unable to find the platform during the training stages were excluded from the experiments. Probe test was carried out on the next day following the 5-day training stage with a 60 seconds trial, and the platform was removed to prevent the mice from climbing onto it during the testing. One day after the behavioral tests, mice were euthanized and the brains were harvested.
# To determine if α7 nAChR is involved in HAND, iTat mice were fed with Dox-containing food pellets for 7 days, injected s.c. with a well-studied and highly specific positive allosteric modulator (PAM) PNU-120596 of α7 nAChR^73,74 […], and then subjected to open field test (OPT) for locomotor activity on day 14, and Morris Water Maze test (MWZ) for learning and spatial memory on day 15-20, and euthanized to harvest tissues on day 21 (FIG. 1A). Dox-containing food pellet feeding and PAM injection continued during the next 7 days of behavioral tests. To minimize the effects of injection on behavioral tests, PAM was injected 5 hours after each behavioral test.
# α7 nAChR = α7 nAChR expression in brain tissue (Western blotting, immunofluorescence); assay type: in vivo, mouse
# Protocol: FIG. 11A-FIG. 11E show the α7 nAChR expression in the brain, cortical neurons, microglia, and astrocytes in response to Tat and PAM. Western blotting was performed in the same samples of FIG. 1D (FIG. 11A & FIG. 11B, mouse brain tissue, n=6/group, three males, and three females) and FIG. 4A (FIG. 11D & FIG. 11E, primary cells, and n=3/group) using an anti-α7 nAChR antibody. Immunofluorescent staining (FIG. 11C, scale bars 20 μm) of the brain tissues was also performed using an anti-α7 nAChR antibody. p<0.05 was considered significant and marked as *; p<0.01 and p<0.001 were both considered highly significant and marked as ** and ***, respectively.
# A RIPA buffer (50 mM Tris.HCl, pH 8.0, 280 mM NaCl, 0.5% NP-40, 1% C24H39NaO4, 0.2 mM EDTA, 2 mM EGTA and 10% glycerol) supplemented with protease inhibitors (Millipore-Sigma, catalog #S8830) and phosphatase inhibitors (Millipore-Sigma, catalog #4906845001) was used to lyse the brain tissues and cultured cells with brief sonication on ice. Protein concentrations of the lysates were determined using a Bio-Rad DC protein assay kit (Bio-Rad, catalog #5000111). […]
smiles,measurement,setting,value
"COc1cc(OC)c(NC(=O)Nc2cc(C)on2)cc1Cl [PAM, 1-(5-chloro-2,4-dimethoxy-phenyl)-3-(5-methyl-isoxazol-3-yl)-urea]","Neuroprotective effects against locomotor, learning and memory deficits",α7−/−iTat mice,abolished
same,OPT maximum speed,iTat mice; Wt and iTat mice,increases of the maximum speed of male Wt mice but not other mice
same,OPT total travel distance,iTat mice; Wt mice,some improvement of the travel distance of Wt mice
same,OPT total travel distance,iTat mice; iTat mice,improvement of the travel distance of iTat mice
same,α7 nAChR expression,α7 nAChR; cortex of iTat mice,increased in cortex
same,α7 nAChR expression,α7 nAChR; hippocampus of iTat mice,only decreased in hippocampus by both Tat expression and PAM treatment

# Reference: patent US11786507B2, “Methods of treating HIV-associated neurological disorders (HAND)” (priority 2020, dated 2023)
